# Data as given in article PMC11547576, “Identification of a New Promising BAG3 Modulator Featuring the Imidazopyridine Scaffold” (Molecules, 2024).
# Legend:
# BAG3 full-length = target: T1, BAG3 full-length (Homo sapiens, UniProt O95817); assay: SPR assay on BAG3 full-length protein; conditions: Biacore T200, 0 to 100 µM, 25 °C, 1:1 interaction model, n.b. = no binding, read-out: BAG3 FULL KD (µM) ± SD
# T1 construct: both the full-length BAG3 protein and its BAG domain; purchased Novus Biologicals (Littleton, CO, USA)
# T1 sequence (O95817 whole entry, the tested form may be a part): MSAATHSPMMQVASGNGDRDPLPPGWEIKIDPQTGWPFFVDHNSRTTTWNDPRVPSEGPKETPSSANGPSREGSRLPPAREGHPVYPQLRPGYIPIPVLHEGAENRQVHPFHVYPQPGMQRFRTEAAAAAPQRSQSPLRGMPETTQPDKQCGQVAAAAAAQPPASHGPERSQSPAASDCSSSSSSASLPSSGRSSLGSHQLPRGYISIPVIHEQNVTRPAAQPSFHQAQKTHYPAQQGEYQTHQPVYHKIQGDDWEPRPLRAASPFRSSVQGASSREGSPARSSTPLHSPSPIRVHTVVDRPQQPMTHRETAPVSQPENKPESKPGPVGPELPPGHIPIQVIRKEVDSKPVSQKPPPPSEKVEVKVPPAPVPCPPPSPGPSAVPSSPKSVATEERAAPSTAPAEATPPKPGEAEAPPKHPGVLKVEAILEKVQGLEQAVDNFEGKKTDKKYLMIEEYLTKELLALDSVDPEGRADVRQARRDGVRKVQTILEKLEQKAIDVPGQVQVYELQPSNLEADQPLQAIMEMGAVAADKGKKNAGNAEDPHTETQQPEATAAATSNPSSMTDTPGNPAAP
# Method: In this study, we employed SPR experiments to evaluate the interactions between synthesized compounds (1–14) and both the full-length BAG3 protein and its BAG domain. Only the compounds that successfully bound to the full-length BAG3 protein were tested for their interaction with the BAG domain. Protein immobilization was achieved using the amide coupling method, and the compounds were tested at ten different concentrations, ranging from 0 to 100 µM. A known binder of BAG3-BD, LK4 ((Z)-ethyl 2-(5-(3,4-dihydroxybenzylidene)-2,4-dioxothiazolidin-3yl)acetate), was used as a positive control. […] Compound 14 also bound the target but with slightly higher KD values, still within the micromolar range. The three identified compounds were further investigated to understand whether this binding induced an effect on BAG3 protein functions. The KD values reported in Table 1 for the known inhibitor LK4 differ from those in previous studies due to the use of a newer-generation instrument for the SPR experiments. The earlier experiments utilized the Biacore 3000, whereas the current study employed the Biacore T200. While ligand binding was confirmed in both sets of experiments, the slightly different KD values are attributed to the enhanced sensitivity of the Biacore T200.
# Recombinant human BAG3 protein (Bcl2-associated athanogene 3) was sourced from Novus Biologicals (Littleton, CO, USA), while the BAG3 domain (BAG3-BD) was procured from ARETA International S.r.l. (Gerenzano, Italy). We utilized (Z)-ethyl 2-(5-(3,4-dihydroxybenzylidene)-2,4-dioxothiazolidin-3-yl)acetate (LK4), a known BAG3 inhibitor previously identified by our group. Surface Plasmon Resonance (SPR) spectroscopy was employed to assess the affinity of synthesized molecules for BAG3 and BAG-BD using a Biacore T200 optical biosensor equipped with CM5 sensor chips (Cytiva, Marlborough, MA, USA). BAG3 and BAG-BD were immobilized on the CM5 sensor chip using standard amine-coupling protocols. BAG3 protein (0.067 μg/μL in 10 mM CH3COONa, pH 4.5) was immobilized at a flow rate of 10 μL/min, resulting in a density of 14 kRU. The BAG3 domain (0.38 μg/μL in 10 mM CH3COONa, pH 4.5) was immobilized under similar conditions, achieving a density of 4 kRU. For the experiments, BAG3 and BAG-BD surfaces, along with an unmodified reference surface, were prepared for simultaneous analyses.
# Compounds 1–14 and LK4 were dissolved to 10 mM in 100% DMSO and then diluted 1:20 (v/v) in PBS-P buffer (0.2 M phosphate buffer, 27 mM KCl, 1.37 M NaCl, 0.5% surfactant P20) to achieve a final DMSO concentration of 5.0%. These compounds were injected in a concentration series (1:2 dilution, 10 different concentrations) ranging from 0 to 100 μM, prepared in 96-well plates. SPR experiments were conducted at 25 °C with a flow rate of 20 μL/min, featuring 90 s of association and 400 s of dissociation monitoring. Changes in mass, reflected as resonance units (RU), were recorded to determine binding responses. KD values were calculated using Biaevaluation software 3.2 by globally fitting the double-referenced association and dissociation data to a 1:1 interaction model. See Supplementary Materials for all the sensorgrams (Figures S43–S50).
# caspase 3 = assay: Western blot of caspase 3 expression and cleavage; type: cell-based, human; conditions: HeLa cells, 72 h, 50, 30 and 20 µM
# Method: Furthermore, we investigated the expressions of caspases, key mediators of programmed cell death, in HeLa cells treated with compound 10 at the same concentrations used in the previous assays. […] To further confirm the pro-apoptotic mechanism induced by compound 10, Western blotting was performed to measure the expression and cleavage of caspase 3 [38, 39].
# The HeLa cell line was seeded in 60 mm culture dishes (20 × 104) and treated with compound 10 (50, 30, 20 μM) for 72 h. After treatments, the cells were washed twice, detached with a scraper, and centrifuged for 10 min (400× g, 4 °C) to remove debris. Total proteins were extracted by lysis buffer (20 mM Tris-HCl pH 7.5, 150 mM NaCl, 1 mM Na2EDTA, 1 mM EGTA, 2% NP-40, 1% sodium deoxycholate, 1× protease, and phosphatase inhibitor cocktail) for 30 min. […] Protein concentration was determined by the Bradford assay using bovine serum albumin as standard. […]
# After washes in PBS/Tween-20 0.1% the appropriate anti-rabbit or anti-mouse (1:5000, Pierce, Thermo Fisher Scientific) peroxidase-linked secondary antibody was added for 1 h at room temperature. Antigen–antibody complexes were detected through enhanced chemiluminescence using LAS 4000 (GE Healthcare, Chicago, IL, USA) and a densitometry analysis of the autoradiographs was performed by using the ImageJ program, version 1.47 [38, 39]. […]
compound,measurement,setting,value
"CC(C)Nc1c(-c2ccccc2Br)nc2ccc(Cl)cn12 [Compound 10, 2-(2-bromophenyl)-6-chloro-N-isopropylimidazo[1,2-a]pyridin-3-amine]",Kd,BAG3 full-length,33.5 ± 0.21 µM
same,expression of procaspase 3,caspase 3,increased expression of procaspase 3
same,levels of cleaved caspase 3,caspase 3,elevated levels of cleaved caspase 3 in a dose-dependent manner
